Reference: patent US10190104B2, “Isoform of anaplastic lymphoma kinase and its uses” (Memorial Sloan-Kettering Cancer Center, priority 2014, dated 2019)

Test system: ALK-transformed Ba/F3 cells
Experiment: Cell viability assay of Ba/F3 cells expressing ALK isoforms treated with ALK inhibitors
Format: cell-based, murine
Conditions: cell viability after 72 hours; for IL-3-independent growth of ALK-transformed Ba/F3 cells: absence of IL-3, CellTiter-Glo; for growth in the presence of IL-3: presence of IL-3 (1 ng/ml)
Procedure: Ba/F3 cells were stably transduced with MSCV-ALK^variant-IRES-GFP constructs with a multiplicity of infection (MOI) of ˜0.26. Based on the MOI calculations, ˜78% of cells were uninfected, ˜20% of cells were infected with one virus particle, and ˜2% of cells were infected by more than one viral particle. Stably transduced Ba/F3 cells were cultured in RPMI medium supplemented with IL-3 (1 ng ml-1) and the transduction rate of 20% was validated using flow cytometry for GFP, that was co-expressed with the ALK variants. For the cell proliferation assay, transduced Ba/F3 cells were transferred into IL-3 depleted RPMI medium and cell growth was quantified every 2-4 days with a luminescence assay (#G7571, Promega). […] All drugs were suspended in DMSO. The cell viability was assessed after 72 hours by a luminescence assay CellTiter-Glo (#G7571, Promega). Results were normalized to growth of cells in a medium containing an equivalent volume of DMSO. The inhibition curve was determined with GraphPad Prism 6.0 software using the ‘log(inhibitor) vs. response variable slope’ non-linear regression model.

| SMILES | IL-3-independent growth of ALK-transformed Ba/F3 cells | growth in the presence of IL-3 |
| --- | --- | --- |
| COc1cc(N2CCC(N3CCN(C)CC3)CC2)ccc1Nc1ncc(Cl)c(Nc2ccccc2S(=O)(=O)C(C)C)n1 [TAE-684, NVP-TAE684] | effectively inhibited | no effect |
| Cc1cc(Nc2ncc(Cl)c(Nc3ccccc3S(=O)(=O)C(C)C)n2)c(OC(C)C)cc1C1CCNCC1 [ceritinib] | effectively inhibited | no effect |
